Where “and” joins values, the source holds several entries; their conditions need not be identical. Equal entries are not always repeated. Toxic doses and inconclusive results are not listed. How the source made its calls: active means survival T/C of 150% or more; inactive means T/C below 125% in these data.
System: BDF1 mice, P388 leukemia ip, median survival T/C
Assay: NCI In Vivo Anticancer Drug Screen. Data for tumor model P388 Leukemia (intraperitoneal) in B6D2F1 (BDF1) mice
Details: endpoint: median survival time, higher = longer survival
Method in brief: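 Survival ratio, drug arm over vehicle arm, in mice with a transplanted tumour.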

[1] = dose: 25.0 mg/kg/injection, schedule: Q01DX009 (ip), vehicle: saline with Tween-80
[2] = dose: 25.0 mg/kg/injection, schedule: Q04DX003 (ip), vehicle: saline with Tween-80
[3] = dose: 50.0 mg/kg/injection, schedule: Q01DX009 (ip), vehicle: saline with Tween-80
[4] = dose: 50.0 mg/kg/injection, schedule: Q04DX003 (ip), vehicle: saline with Tween-80
[5] = dose: 100.0 mg/kg/injection, schedule: Q04DX003 (ip), vehicle: saline with Tween-80
[6] = dose: 200.0 mg/kg/injection, schedule: Q04DX003 (ip), vehicle: saline with Tween-80
[7] = dose: 400.0 mg/kg/injection, schedule: Q04DX003 (ip), vehicle: saline with Tween-80
[8] = dose: 100.0 mg/kg/injection, schedule: Q01DX009 (ip), vehicle: Klucel (hydroxypropylcellulose) (HPC)
[9] = dose: 100.0 mg/kg/injection, schedule: Q04DX003 (ip), vehicle: Klucel (hydroxypropylcellulose) (HPC)
[10] = dose: 200.0 mg/kg/injection, schedule: Q01DX009 (ip), vehicle: Klucel (hydroxypropylcellulose) (HPC)
[11] = dose: 200.0 mg/kg/injection, schedule: Q04DX003 (ip), vehicle: Klucel (hydroxypropylcellulose) (HPC)
[12] = dose: 400.0 mg/kg/injection, schedule: Q01DX009 (ip), vehicle: Klucel (hydroxypropylcellulose) (HPC)
[13] = dose: 400.0 mg/kg/injection, schedule: Q04DX003 (ip), vehicle: Klucel (hydroxypropylcellulose) (HPC)
[14] = dose: 100.0 mg/kg/injection, schedule: Q01DX009 (ip), vehicle: saline with Tween-80
[15] = dose: 200.0 mg/kg/injection, schedule: Q01DX009 (ip), vehicle: saline with Tween-80
[16] = dose: 50.0 mg/kg/injection, schedule: Q01DX009 (ip), vehicle: saline
[17] = dose: 100.0 mg/kg/injection, schedule: Q01DX009 (ip), vehicle: saline
[18] = dose: 200.0 mg/kg/injection, schedule: Q01DX009 (ip), vehicle: saline
[19] = dose: 100.0 mg/kg/injection, schedule: Q04DX003 (ip), vehicle: saline sonified
[20] = dose: 100.0 mg/kg/injection, schedule: Q01DX001 (ip), vehicle: saline with Tween-80
[21] = dose: 200.0 mg/kg/injection, schedule: Q01DX001 (ip), vehicle: saline with Tween-80
[22] = dose: 400.0 mg/kg/injection, schedule: Q01DX001 (ip), vehicle: saline with Tween-80

Measured: T/C

COC(=O)c1ccc(Cl)c(Cl)c1
inactive: [1] 101 % of control | [2] 102 % of control | [3] 116 % of control | [4] 94 % of control and 100 % of control and 108 % of control | [5] 97 % of control and 98 % of control and 103 % of control | dose: 150.0 mg/kg/injection, schedule: Q04DX003 (ip), vehicle: saline with Tween-80 98 % of control | [6] 108 % of control and 112 % of control | dose: 300.0 mg/kg/injection, schedule: Q04DX003 (ip), vehicle: saline with Tween-80 110 % of control | [7] 107 % of control

CC(=O)[C@H]1CC[C@H]2[C@@H]3CC[C@@H]4C[C@@H](O)CC[C@]4(C)[C@H]3CC[C@]12C
inactive: dose: 163.0 mg/kg/injection, schedule: Q01DX009 (ip), vehicle: saline with Tween-80 109 % of control | dose: 325.0 mg/kg/injection, schedule: Q01DX009 (ip), vehicle: saline with Tween-80 100 % of control

COC(=O)C12N=NN(c3ccccc3)C1(C(=O)OC)C1CCC2C1 (configuration not stated)
inactive: [5] 100 % of control | [6] 100 % of control | [7] 91 % of control

C[C@]12CC[C@@H]3c4ccc(O)cc4CC[C@H]3[C@@H]1CC[C@@H]2OC(=O)CCC1CCCC1
inactive: [8] 100 % of control | [9] 104 % of control | [10] 95 % of control | [11] 104 % of control | [12] 104 % of control | [13] 104 % of control

CC(C(=O)c1ccccc1)C(Cl)c1ccccc1 (configuration not stated)
inactive: [3] 95 % of control | [14] 94 % of control | [5] 89 % of control | [15] 86 % of control | [6] 89 % of control | dose: 400.0 mg/kg/injection, schedule: Q01DX009 (ip), vehicle: saline with Tween-80 86 % of control | [7] 98 % of control

CN1CCC2=C(C1)C(N1CCCC1)CS(=O)(=O)O2 (configuration not stated)
inactive: dose: 12.5 mg/kg/injection, schedule: Q04DX002 (ip), vehicle: saline 100 % of control | dose: 25.0 mg/kg/injection, schedule: Q04DX002 (ip), vehicle: saline 102 % of control | dose: 50.0 mg/kg/injection, schedule: Q04DX002 (ip), vehicle: saline 99 % of control

O=C(OCCCCOC(=O)c1cccc([N+](=O)[O-])c1)c1cccc([N+](=O)[O-])c1
inactive: dose: 3.0 mg/kg/injection, schedule: Q04DX003 (ip), vehicle: saline with Tween-80 115 % of control | dose: 6.0 mg/kg/injection, schedule: Q04DX003 (ip), vehicle: saline with Tween-80 110 % of control | dose: 12.0 mg/kg/injection, schedule: Q04DX003 (ip), vehicle: saline with Tween-80 120 % of control

NC(Cc1ccc(Cl)cc1)C(=O)O (configuration not stated)
inactive: dose: 200.0 mg/kg/injection, schedule: Q01DX010 (im), vehicle: other 90 % of control | dose: 400.0 mg/kg/injection, schedule: Q01DX010 (im), vehicle: other 90 % of control | dose: 600.0 mg/kg/injection, schedule: Q01DX010 (im), vehicle: other 90 % of control

COc1ccc(/C=C(\CC(=O)O)C(=O)O)cc1OC
inactive: [8] 100 % of control | [9] 100 % of control | [10] 109 % of control | [11] 100 % of control | [12] 95 % of control | [13] 90 % of control

CCOC(=O)CCCN(c1sc(C)c(C)c1C(=O)OCC)S(=O)(=O)c1ccc(C)cc1
inactive: [1] 104 % of control | [3] 109 % of control | [4] 91 % of control | [14] 104 % of control | [5] 87 % of control | [15] 95 % of control | [6] 95 % of control | [7] 87 % of control

CC12CCC(c3sc(N)c(C#N)c31)C2(C)C (configuration not stated)
inactive: dose: 1.56 mg/kg/injection, schedule: Q01DX009 (ip), vehicle: saline with Tween-80 88 % of control | dose: 3.13 mg/kg/injection, schedule: Q01DX009 (ip), vehicle: saline with Tween-80 102 % of control | dose: 6.25 mg/kg/injection, schedule: Q01DX009 (ip), vehicle: saline with Tween-80 104 % of control | dose: 12.5 mg/kg/injection, schedule: Q01DX009 (ip), vehicle: saline with Tween-80 104 % of control and 121 % of control | [1] 104 % of control | [3] 118 % of control

Clc1ccccc1CCCBr
inactive: [5] 95 % of control | [6] 100 % of control | [7] 105 % of control

C[N+]1(C)C2CC(=O)CC1C1CC12 (configuration not stated) (tested in a mixture with another compound)
inactive: dose: 25.0 mg/kg/injection, schedule: Q01DX009 (ip), vehicle: saline 99 % of control | [16] 106 % of control | [17] 106 % of control | [18] 106 % of control

COC(=O)CC12CC3(C)CC(C)(C1)CC(CC(=O)OC)(C3)C2
inactive: [3] 102 % of control | [14] 102 % of control | [15] 117 % of control

O=c1cc(-c2cccs2)ss1
inactive: [1] 106 % of control | [3] 97 % of control | [14] 86 % of control and 106 % of control | [5] 106 % of control | [15] 116 % of control | [6] 92 % of control

Cc1ccccc1N=C(N)Nc1ccccc1C
inactive: dose: 6.25 mg/kg/injection, schedule: Q04DX003 (ip), vehicle: saline with Tween-80 105 % of control | dose: 12.5 mg/kg/injection, schedule: Q04DX003 (ip), vehicle: saline with Tween-80 94 % of control | [2] 100 % of control

C=C(C)C(O)C(O)c1cc2ccc(=O)oc2cc1OC (configuration not stated)
inactive: dose: 8.75 mg/kg/injection, schedule: Q01DX009 (ip), vehicle: carboxymethylcellulose (CMC) 96 % of control | dose: 17.5 mg/kg/injection, schedule: Q01DX009 (ip), vehicle: carboxymethylcellulose (CMC) 88 % of control

Cc1cc(N2CCOCC2)nc(N2CCOCC2)c1C#N
inactive: dose: 100.0 mg/kg/injection, schedule: Q01DX005 (ip), vehicle: saline with Tween-80 91 % of control | dose: 200.0 mg/kg/injection, schedule: Q01DX005 (ip), vehicle: saline with Tween-80 99 % of control

CC1(C)CC(=O)C=C(NC2CCCCC2)C1
inactive: dose: 50.0 mg/kg/injection, schedule: Q04DX003 (ip), vehicle: saline sonified 90 % of control | [19] 109 % of control | dose: 200.0 mg/kg/injection, schedule: Q04DX003 (ip), vehicle: saline sonified 100 % of control

Oc1cccc(O)c1
inactive: dose: 50.0 mg/kg/injection, schedule: Q01DX010 (ip), vehicle: saline 95 % of control | dose: 100.0 mg/kg/injection, schedule: Q01DX010 (ip), vehicle: saline 91 % of control

NS(=O)(=O)c1ccc(NC(=S)NC(=O)/C=C/c2ccccc2)cc1
inactive: dose: 100.0 mg/kg/injection, schedule: Q04DX003 (sc), vehicle: olive oil, sesame oil, peanut oil 90 % of control | dose: 200.0 mg/kg/injection, schedule: Q04DX003 (sc), vehicle: olive oil, sesame oil, peanut oil 90 % of control | dose: 400.0 mg/kg/injection, schedule: Q04DX003 (sc), vehicle: olive oil, sesame oil, peanut oil 90 % of control

CCCCCCCCCCCCCCCC(=O)NCCO
inactive: [19] 91 % of control

CS(=O)(=O)Nc1cc(Cl)c(NS(C)(=O)=O)c(Cl)c1Cl
inactive: [20] 100 % of control | [21] 103 % of control | [22] 100 % of control

CN(C)P(=O)(N(C)C)N(C)CC[N+](C)(C)C
inactive: [16] 103 % of control | [17] 101 % of control | [18] 100 % of control

CC(Cl)CNC(=O)Nc1cccc2c1CCCC2 (configuration not stated)
inactive: [20] 100 % of control | [21] 109 % of control | [22] 90 % of control
